These results are taken from US20140349941A1, “AROMATIC-CATIONIC PEPTIDES AND USES OF SAME” (Cornell University, priority 2011, published 2014).

The target of one assay is cytochrome c (Homo sapiens, UniProt P99999). The assay can be described thus: Cytochrome c reduction monitored by absorption spectroscopy (glutathione or NAC as reducing agent). It counts as biochemical. The protocol:
Cytochrome c reduction: increasing amounts of aromatic-cationic peptides were added to a solution of oxidized cyt c. The formation of reduced cyt c was monitored by absorbance at […]. The rate of cyt c reduction was determined by non-linear analysis (Prizm software).
Time-resolved UV-Visible absorption spectroscopy was used to study the electron transport process of cyt c in the presence of peptides. Reduced cyt c was monitored by absorbance at a broad-band spectral range (200-1100 nm). The absorption changes were recorded with a UV/Visible spectrophotometer (Ultrospec 3300 pro, GE) in quartz cells with path lengths of 1 or 2 mm. N-acetylcysteine (NAC) and glutathione were used as electron donors to reduce oxidized cyt c. The rate constant of cyt c reduction was estimated by adding various concentrations of peptides. The dose dependence of the peptides was correlated to the cyt c reduction kinetics.
Absorption spectroscopy (UltroSpec 3300 Pro; 220-1100 nm) was used to determine if SS-31 modulates cyt c reduction (FIG. 1). Reduction of cyt c with glutathione is associated with multiple shifts in the Q band (450-650 nm), with a prominent shift at 550 nm.
Reduction of cyt c was monitored by increase in absorbance at 550 nm. […] Similar results were obtained using N-acetylcysteine (NAC) as a reducing agent (not shown).

The target of a further assay is cyt c (Homo sapiens, UniProt P99999). Description: Cyclic voltammetry of cyt c in solution.
The test system of assay [1] is isolated rat kidney mitochondria. Description: O2 consumption of isolated rat kidney mitochondria (Oxygraph). It counts as biochemical. The protocol: Fresh mitochondria were isolated from rat kidney as described previously. Electron flux was measured by O2 consumption (Oxygraph Clark electrode) as previously described using different substrates for C1 (glutamate/malate), C2 (succinate), and C3 (TMPD/ascorbate). Assays were carried out under low substrate conditions in order to avoid saturating the enzyme reactions. ATP production in isolated mitochondria was determined kinetically using the luciferase method (Biotherma) in a 96-well luminescence plate reader (Molecular Devices). The initial maximal rate for ATP synthesis was determined over the first minute.
Oxygen consumption of isolated rat kidney mitochondria was determined using the Oxygraph (FIG. 5). Rates of respiration were measured in the presence of different concentrations of SS-31 in state 2 (400 μM ADP only), state 3 (400 μM ADP and 500 μM substrates) and state 4 (substrates only). All experiments were done in triplicate with n=4-7.
SS-20 or SS-31 was added at 100 μM concentrations to isolated mitochondria in respiration buffer containing 0.5 mM succinate (complex II substrate) and 400 μM ADP. Similar increases in O2 consumption were observed when low concentrations of complex I substrates (glutamate/malate) were used (data not shown).
SS-20 or SS-31 was added at 10 μM or 100 μM concentrations to isolated mitochondria in respiration buffer containing glutamate/malate (complex I substrate), 0.5 mM succinate (complex II substrate) or 3 μM TMPD/1 mM ascorbate (direct reductant of cyt C). 400 μM ADP was added to initiate State 3 respiration.

The subject of assay [2] is cyt c-depleted mitoplasts. The assay can be described thus: Respiration in cytochrome c-depleted mitoplasts. It counts as biochemical, rat. As for the experimental part:
Rates of respiration were measured in the presence of 500 μM Succinate with or without 100 μM SS-31. The experiment was carried out in triplicate, with n=3.
A model of cyt C tightly bound to mitochondrial cardiolipin was used to investigate interaction of SS-31 with cytochrome c-CL complex in mitochondria. After removal of outer membrane with digitonin, mitoplasts were washed with 120 mM KCl to remove all free and electrostatically associated cytochrome c, leaving only cytochrome c tightly bound to CL.

The target of a further assay is cytochrome c (with CL) (Homo sapiens, UniProt P99999). Description: Cytochrome c reduction inhibited by CL. It counts as biochemical. As for the experimental part:
Cytochrome c is a carrier of electrons between respiratory complex III and IV in mitochondria. Cytochrome c is reduced (Fe^2+) after it accepts an electron from cytochrome c reductase, and it is then oxidized to Fe^3+ by cytochrome c oxidase.
Reduction of cytochrome c (20 μM) was induced by the addition of glutathione (500 μM) in the absence or presence of CL (100 μg/ml) (FIG. 25A). Reduction of cytochrome c was monitored by absorbance at 550 nm using a 96-well UV-VIS plate reader (Molecular Devices). Addition of CL decreased the rate of cytochrome c reduction by half.

Chain of cyt c (P99999 2-105 limits assumed, species assumed): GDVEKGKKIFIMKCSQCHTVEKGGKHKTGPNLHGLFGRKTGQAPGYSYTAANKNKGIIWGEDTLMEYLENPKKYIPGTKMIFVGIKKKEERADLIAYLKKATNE
Chain of cytochrome c (P99999 2-105 limits assumed, species assumed): as above
Chain of cytochrome c (with CL) (P99999 2-105 limits assumed, species assumed): as above

D-Arg-2′6′Dmt-Lys-Phe-NH2 [SS-31]: the “rate of NAC-induced cyt c reduction” value on cytochrome c (N-acetylcysteine as reducing agent) was “dose-dependently increased the rate of NAC-induced cyt c reduction”. The “kinetics of cyt c reduction induced by glutathione (GSH)” value at cytochrome c (absorbance at 550 nm, FIG. 13) is on record as “can accelerate the kinetics of cyt c reduction”. Also, the “cyt c reduction by peptide alone” value at cytochrome c (peptide alone at 100 μM) is “did not reduce cyt c”. In addition, the “spectral weight shift at 550 nm of cyt c” value on cytochrome c (reduction of cyt c with glutathione, FIG. 1A) is listed as “significant spectral weight shift at 550 nm”. For the same substance, on cytochrome c (time-dependent spectroscopy, FIG. 1B), the “rate of cyt c reduction” value is reported as “increased the rate of cyt c reduction”. In addition, the “current for reduction and oxidation processes of cyt c” value on cyt c (Au working electrode, Ag/AgCl reference, FIG. 2 upper panel) was “increased current for both reduction and oxidation processes”. Moreover, the “reduction/oxidation potentials of cyt c” value on cyt c (FIG. 2 upper panel) is given as “does not alter reduction/oxidation potentials”. Further, at cyt c (cyt c:SS31=1:2, TBE buffer, FIG. 2 lower panel), the “increase of current (electron diffusion rate)” value is given as around 200%. Further, the “O2 consumption in state 3 respiration” value in assay [1] (glutamate/malate, succinate or TMPD/ascorbate, 400 μM ADP, FIG. 26) was “increased O2 consumption in state 3 respiration”. Also, the “electron flux, as measured by O2 consumption” value in assay [1] (peptide 10 μM or 100 μM, complex I, complex II substrate or TMPD/ascorbate, FIG. 26) is given as “can promote electron flux”; in assay [1] (peptide 100 μM, 0.5 mM succinate, 400 μM ADP, FIG. 14) it was “can promote electron flux”. In assay [1] (state 2, state 3 and state 4, different concentrations, FIG. 5), the “electron transfer to oxygen (rates of respiration)” value is given as “promoted electron transfer to oxygen without uncoupling mitochondria”. In addition, the “mitochondrial O2 consumption (respiration)” value in assay [2] (500 μM succinate, 100 μM peptide, once-frozen rat kidney mitochondria, FIG. 7) is “Enhances Respiration in Cytochrome C-Depleted Mitoplasts”. Further, in assay [2] (cytochrome c tightly bound to CL, digitonin, 120 mM KCl wash, dose-dependent, FIG. 28), the “complex II respiration in mitoplasts” value is “enhances complex II respiration”. The “inhibitory effect of CL on kinetics of cytochrome c reduction” value at cytochrome c (with CL) (500 μM GSH or 50 μM ascorbate, FIG. 25B) is recorded as “dose-dependently overcame the inhibitory effect of CL”. At cytochrome c (with CL) (cytochrome c 20 μM, glutathione 500 μM, CL 100 μg/ml, peptide 20, 40 or 100 μM, FIG. 25A), the “inhibitory action of CL on rate of cytochrome c reduction” value is “dose-dependently prevented the inhibitory action of CL”.
